Data as given in patent US4985547A, “External skin care preparation” (Kao Corporation, priority 1987, dated 1991).

Tests used:
skin roughness = experiment: Score of skin roughness, visual ranking after two-week coating on cheeks; assay type: in vivo, women; conditions: compound 1.0 wt. %, average, 0 = none, 4 = severe
From the text: (§1) Compounds Ia1 -Ia18 prepared respectively in Referential Examples 1, 2 and 3 and following the procedures of these referential examples, compounds Ib1 -Ib5 prepared respectively in Referential Example 4 and following the procedure of the referential example, compounds Id1 -Id5 prepared respectively in Referential Example 5 and following the procedure of the referential example, compounds Ie1 -Ie4 prepared respectively in Referential Examples 6-9, and conventional compounds Ic1 -Ic13, Ie5 -Ie14 and II1 -II12 were used separately. Mixtures (Invention Products 1), each of which had been formulated by mixing vaseline and the compound (I or II) at a weight ratio of 3:1, and vaseline (Comparative Product 1) were evaluated in skin conductance and skin roughness by the following methods.
(§2) Chosen as volunteers in winter were 10 women of 20-50 years of old who had skin roughness on their both cheeks. Different external skin care preparations were coated separately on the left and right cheeks of each volunteer for two weeks. On the following day of the completion of the two-week coating test, tests were conducted with respect to the following properties.
Skin roughness was observed visually and ranked in accordance with the following standard. Each score was indicated by an average value.
Score Ranking of skin roughness
0 No skin roughness was observed.
1 Slight skin roughness was observed.
2 Skin roughness was observed.
3 Rather severe skin roughness was observed.
4 Severe skin roughness was observed.
Using separately the compounds used in Example 1, external skin care preparations (emulsified cosmetic preparations) of their corresponding compositions shown below in Table 2 were formulated. Their effects for the improvement of skin roughness were evaluated in the same manner as in Example 1.

horny layer = experiment: Skin conductance (water content of horny layer) after two-week coating on cheeks; assay type: in vivo, women; parameters: key: conductance meter reading; ≤5 = severe roughness, ≥20 = no roughness; conditions: Invention Product 1: vaseline and compound 3:1 by weight; two weeks; 20° C., 40% humidity; 5 and smaller = severe roughness, 20 or greater = no substantial roughness
From the text: as §1, §2
After washing the face with warm water of 37° C., each volunteer was allowed to rest for 20 minutes in a room which was air-conditioned at 20° C. and 40% humidity. The water content of their horny layer was measured by a skin conductance meter (manufactured by IBS Company). A smaller conductance value indicates greater skin roughness. Conductance values of 5 and smaller indicate severe skin roughness. On the contrary, no substantial skin roughness is observed where this value is 20 or greater.

[1] = Invention product 2: emulsified cosmetic, glyceryl ether 2.0 wt. %
[2] = Invention product 3: emulsified cosmetic, arginine monocetylphosphate 2.0 wt. %
[3] = Invention product 4: emulsified cosmetic, polyoxyethylene (20) sorbitan stearate 1.0 and sorbitan monostearate 1.0 wt. %

SMILES | Score of skin roughness (skin roughness; [1]) | Score of skin roughness (skin roughness; [2]) | Score of skin roughness (skin roughness; [3]) | Skin conductance (horny layer)
CCCCCCCCCCCCCCCCOCC(O)CN(CCO)CC(O)COCCCCCCCCCCCCCCCC (stereo not shown) [Compound II1] | 0.1 | 0.3 | 0.8 | 18
CCCCCCCC/C=C\CCCCCCCC(=O)N(CCO)CC(O)CCCCCCCCCCCCCCCC (stereo not shown) [Compound Id5] | 0.1 | 0.3 | 0.6 | 25
CCCCCCCCCCCCCCCCCC(=O)N(CCOCCO)CC(O)COCCCCCCCCCC (stereo not shown) [Compound Ib4] | 0.4 | 0.6 | 0.9 | 17
CCCCCCCCCCCCCCCCOCC(O)CN(CCO[C@@H]1O[C@H](CO)[C@@H](O[C@@H]2O[C@H](CO)[C@H](O)[C@H](O)[C@H]2O)[C@H](O)[C@H]1O)C(=O)CCCCCCCCCCCCCCC (stereo partly drawn) [Compound Ie2, N-(3-hexadecyloxy-2-hydroxypropyl)-N-[2-O-(4-β-D-galactopyranosyl-β-D-glucopyranosyl)ethyl]hexadecanamide] | 0.4 | 0.5 | 0.8 | 29
CCCCCCCCCCCCCCCCOCC(O)CN(C(=O)CCCCCCCCCCCCCCC)C(CCC(=O)O)C(=O)O (stereo not shown) [Compound Ic11] | 0.8 | 1.0 | 1.3 | 13
CCCCCCCCCCCCCCCCCCOCC(O)CN(CC(O)COCCCCCCCCCCCCCCCCCC)C(C)=O (stereo not shown) [Compound II12] | 0.2 | 0.4 | 0.8 | 20
CCCCCCCCCCCCCCCCOCC(O)CN(CC(=O)O)CC(O)COCCCCCCCCCCCCCCCC (stereo not shown) [Compound II9] | 0.1 | 0.3 | 0.9 | 17
CCCCCCCCCCCCCCCCCCOCC(O)CN(CCCO)C(=O)CCCCCCCCCCCCCCCCC (stereo not shown) [Compound Ia6] | 0.1 | 0.3 | 0.7 | 23
CCCCCCCCCCCCCCCCCCOCC(O)CN(CCCO)C(=O)CCCCCCCCC (stereo not shown) [Compound Ia5] | 0.3 | 0.5 | 1.0 | 17
CCCCCCCCCCCCCCCCCC(=O)N(CCCCCCO)CC(O)COCCCCCCCCCC (stereo not shown) [Compound Ia7] | 0.6 | 0.9 | 1.2 | 11
CCCCCCCCCCCCCCCCOCC(O)CN(C(=O)CCCCCCCCCCCCCCC)C(C(=O)O)C(C)C (stereo not shown) [Compound Ic7] | 0.6 | 0.8 | 1.1 | 15
CCCCCCCCCCCCCCCCOCC(O)CN(CCCO)C(=O)CCCCCCCCCCCCCCC (stereo not shown) [Compound Ia1, N-(3-hexadecyloxy-2-hydroxypropyl)-N-3-hydroxypropylhexadecanamide] | 0.2 | 0.4 | 0.8 | 20
CCCCCCCCCCCCCCCCCC(=O)N(CCCO)CC(O)COCCCCCCCCCC (stereo not shown) [Compound Ia4] | 0.5 | 0.7 | 1.1 | 13
CCCCCCCCCCCCCCCCCCOCC(O)CN(CC(=O)O)CC(O)COCCCCCCCCCCCCCCCCCC (stereo not shown) [Compound II8] | 0.2 | 0.4 | 0.8 | 20
CCCCCCCCCCCCCCCCOCC(O)CN(C(=O)CCCCCCCCCCCCCCC)C(Cc1c[nH]c2ccccc12)C(=O)O (stereo not shown) [Compound Ic13] | 1.1 | 1.4 | 1.7 | 10
CCCCCCCCCCCCCCCCOCC(CN(CCO)C(=O)CCCCCCCCCCCCCCC)OP(=O)([O-])OCC[N+](C)(C)C (stereo not shown) [Compound Ie13] | 0.9 | 1.1 | 1.5 | 11

SMILES | Score of skin roughness (skin roughness; [1]) | Score of skin roughness (skin roughness; [2]) | Score of skin roughness (skin roughness; [3]) | Skin conductance (horny layer)
CCCCCCCCCCCCCCCCOCC(O)CN(C(=O)CCCCCCCCCCCCCCC)C(CO)C(=O)O (stereo not shown) [Compound Ic8] | 0.4 | 0.6 | 0.9 | 18
CCCCCCCCCCOCC(O)CN(CC(=O)O)CC(O)COCCCCCCCCCC (stereo not shown) [Compound II6] | 0.8 | 1.0 | 1.2 | 7
CCCCCCCCCCCCCCCCOCC(O)CN(CCOC1O[C@H](CO)[C@@H](O)[C@H](O)[C@H]1O)C(=O)CCCCCCCCCCCCCCC (stereo partly shown) [Compound Ie1, N-(3-hexadecyloxy-2-hydroxypropyl)-N-(2-O-glucopyranosyl)ethylhexadecanamide] | 0.4 | 0.6 | 0.9 | 25
CCCCCCCCCCCCCCCCOCC(O)CN(CCOP(=O)(O)OCCNCc1ccccc1)C(=O)CCCCCCCCCCCCCCC (stereo not shown) [Compound Ie8] | 0.6 | 1.1 | 1.3 | 15
CCCCCCCCCCCCCCCCCCOCC(O)CN(C(=O)CCCCCCCCCCCCCCCCC)C(C)CO (stereo not shown) [Compound Ia16] | 0.4 | 0.6 | 0.9 | 15
CCCCCCCCCCCCCCCCCCOCC(O)CN(CCOCCO)C(=O)CCCCCCCCCCCCCCCCC (stereo not shown) [Compound Ib5] | 0.2 | 0.4 | 0.8 | 23
CCCCCCCCCCCCCCCCOCC(O)CN(CCO[C@@H]1O[C@H](CO)[C@@H](O)[C@H](O)[C@H]1NC(C)=O)C(=O)CCCCCCCCCCCCCCC (stereo partly shown) [Compound Ie3] | 0.3 | 0.4 | 0.7 | 31
CCCCCCCCCCCCCCCCCCOCC(O)CN(CCO)CC(O)COCCCCCCCCCC (stereo not shown) [Compound II3] | 0.5 | 0.8 | 1.1 | 11
CCCCCCCCCCCCCCCCOCC(O)CN(CCOP(=O)(O)OCCNC)C(=O)CCCCCCCCCCCCCCC (stereo not shown) [Compound Ie6] | 0.8 | 0.9 | 1.4 | 16
CCCCCCCCCCCCCCCCCC(=O)N(CC(=O)O)CC(O)CCCCCCCCCCCCCCCC (stereo not shown) [Compound Ic4] | 0.8 | 1.0 | 1.3 | 13
CCCCCCCCCCCCCCCCOCC(O)CN(CCOCCO)C(=O)CCCCCCCCCCCCCCC (stereo not shown) [Compound Ib1, N-(3-hexadecyloxy-2-hydroxypropyl)-N-2-hydroxyethoxyethylhexadecanamide] | 0.1 | 0.2 | 0.7 | 20
CCCCCCCCCCCCCCCCCC(=O)N(CC(=O)O)CC(O)COCCCCCCCCCCCCCC (stereo not shown) [Compound Ic2] | 0.6 | 0.8 | 1.1 | 15
CCCCCCCCCCCCCCCCOCC(O)CN(C(=O)CCCCCCCCCCCCCCC)C(CC(=O)O)C(=O)O (stereo not shown) [Compound Ic10] | 0.6 | 0.8 | 1.1 | 15
CCCCCCCCCCOCC(O)CN(CCOP(=O)(O)OCCNCCc1ccccc1)C(=O)CCCCCCCCC (stereo not shown) [Compound Ie10] | 1.0 | 1.2 | 1.8 | 11
CCCCCCCCCCCCCCCCOCC(O)CN(C(=O)CCCCCCCCCCCCCCC)C(Cc1ccccc1)C(=O)O (stereo not shown) [Compound Ic6] | 0.9 | 1.2 | 1.5 | 12
